Activity calls are given as the source filed them. The calls are words filed in the database; no cut-off is given here.

In the assay the test system is HeLa. In words: Inhibition of hemagglutininin-tagged HIV1 Rev protein nuclear export in human HeLa cells assessed as localization at 5 uM by indirect fluorescent antibody technique. It counts as cell-based. The settings on record: Human immunodeficiency virus 1.

Turning to `C=C[C@H](OC(C)=O)c1ccc(OC(C)=O)cc1`, the result was Active.

Values taken from ChEMBL document CHEMBL1138447, “New Rev-export inhibitor from Alpinia galanga and structure-activity relationship” (Bioorg Med Chem Lett, 2009).
